Data set [1] relates to organ slice of cat cerebral cortex (cerebral edema). Briefly: inhibition test on cerebral edema using organ slice of cat cerebral cortex (NaHCO3-stimulated swelling). It is filed as cell-based. The conditions noted are these: for IC50: Felis catus, 50 min, cat cerebral cortex slices, NaHCO3 stimulated swelling, 50 minutes at 37° C., pH 7.4, read-out: Inhibitory activity cerebral edema (IC50); for Relative activity (Compound A = 1): relative to Compound A = 1. As to the method: The inhibition test on cerebral edema using organ slice of cat cerebral cortex The test was carried out by the method described in Journal of Medicinal Chemistry, vol. 25 (No. 5) 567 (1982).
That is, brain was isolated from a cat weighing 2-4 kg, slices of about 1 mm in thickness was prepared, the white matter substance was removed, and the gray matter substance (100-150 mg a test) was used for a sample. The sample was added to the following incubation medium and incuvated for 50 minutes at 37° C. After the incubation, the sample was immediately weighed again to determine the swelling weight of the sample. […]
incubation medium (osmotic pressure, 280-290 mOsm/1)
1. Hepes Buffer (pH 7.4) . . . 2.365 ml […]
adjusted to pH 7.4 by NaOH
2. test compounds [dissolved in the presence of tris(hydroxymethyl)aminomethane] or water . . . 0.01 ml 3. 0.2M NaHCO3 (dissolved by Hepes Buffer, giving the final concentration of 10 mM in medium) or Hepes Buffer . . . 0.125 ml The test was carried out by using NaHCO3 as a stimulating agent of swelling.
(A) A percentage of swelling when a slice sample was added to incubation medium comprising Hepes Buffer (1), water (2) and NaHCO3 (3) (defined as maximum of swelling).
(B) A percentage of swelling when a slice sample was added to incubation medium comprising Hepes Buffer ((1)+(3)) and water (2) (defined as maximum inhibition of swelling).
(C) A percentage of swelling when a slice sample was added to incubation medium comprising Hepes Buffer (1), the test compounds in various concentrations (2) and NaHCO3 (3).
Above-mentioned (A), (B) and (C) were determined. Inhibition percentage of the test compounds was caliculated by the following equation: [formula] IC50 value was determined by dose-response curve as a concentration in which inhibition percentage was 50.

A short description of a further data set: acute toxicity test. The conditions noted are these: in vivo, iv; administered intravenously. The source says: On the other hand, it was confirmed that the acute toxicity of the compounds of the present invention was very weak. […] Therefore, compounds of the present invention may be considered to be sufficiently safe and suitable for medical use.
In data set [2] the test system is organ slice of cat cerebral cortex (cerebral edema). The conditions noted are these: in words, known DCPIB; cited from earlier work.

This is an account of results in patent US4640931A, “3-(indian-5-yloxy (or thio)) cyclopentanecarboxylic acid analogues” (Ono Pharmaceutical Co., Ltd., priority 1984, dated 1987).

Regarding `CC1(C2CCCC2)Cc2cc(O[C@H]3CC[C@H](C(=O)O)C3)c(Cl)c(Cl)c2C1=O` (mixture of isomers) [Ex. 2 (a), (1S, 3S)-3-[((2RS)-2-cyclopentyl-2-methyl-6,7-dichloro-1-oxoindan-5-yl)oxy]cyclopentanecarboxylic acid], in data set [1], the IC50 stood at 1.5 nM and the “Relative activity (Compound A = 1)” value is reported as 21.3. In addition, in “acute toxicity test”, the LD50 was 200 to 400 mg/kg.

`CC1(C2CCCC2)Cc2cc(S[C@H]3CC[C@H](C(=O)O)C3)c(Cl)c(Cl)c2C1=O` (mixture of isomers) [Ex. 2 (b), (1S, 3S)-3-[((2RS)-2-cyclopentyl-2-methyl-6,7-dichloro-1-oxoindan-5-yl)thio]cyclopentanecarboxylic acid]: in data set [1], the IC50 came out at 5.9 nM and the “Relative activity (Compound A = 1)” value is 5.42.

For `CC1(C2CCCC2)Cc2cc(O[C@H]3CC[C@H](C(=O)O)C3)c(Cl)c(Cl)c2C1=O` (relative stereo) [Ex. 2, 1,3-trans-3-[((2RS)-2-cyclopentyl-2-methyl-6,7-dichloro-1-oxoindan-5-yl)oxy]cyclopentanecarboxylic acid], in data set [1], the IC50 worked out at 2.5 nM and the “Relative activity (Compound A = 1)” value is listed as 12.8.

Turning to `C[C@]1(C2CCCC2)Cc2cc(OCCCC(=O)O)c(Cl)c(Cl)c2C1=O` [Compound A, (+)-4-[((2R)-2-cyclopentyl-2-methyl-6,7-dichloro-1-oxoindan-5-yl)oxy]butyric acid, reference compound], the “inhibitory effect on cerebral edema” value in data set [2] is “strong, but the effect is not enough to use in practice”. Besides, in data set [1], the IC50 is 32 nM.

For the compound `C[C@@]1(C2CCCC2)Cc2cc(O[C@H]3CC[C@H](C(=O)O)C3)c(Cl)c(Cl)c2C1=O` [Ex. 2 (c), (1S, 3S)-3-[((2S)-2-cyclopentyl-2-methyl-6,7-dichloro-1-oxoindan-5-yl)oxy]cyclopentanecarboxylic acid], in data set [1], the IC50 is 1.6 nM and the “Relative activity (Compound A = 1)” value stood at 20.0.
